Measured values reported in patent US10918654B1, “Rutin compositions” (Alps Pharmaceutical Ind. Co., Ltd., priority 2019, dated 2021).

Assay: Stability of the flavonoid in aqueous L-arginine/sodium ascorbate solution at 50° C., intact amount by HPLC
Assay type: physicochemical
Details: for amount of intact flavonoid remaining, of the initial amount in the solution: dissolved in water with L-arginine and sodium ascorbate, HPLC
Method: A composition containing rutin, L-arginine, and ascorbate was prepared in water by mixing 0.0071 mol rutin with an aqueous solution containing 0.020 mol L-arginine, heating the mixture to 80° C. until the rutin dissolved completely, and adding 0.0010 mol sodium ascorbate.
After cooling the above solution, the stability of rutin was tested by heating the mixture to 50° C. and quantifying the amount of intact rutin remaining by HPLC after 0 h, 5 h, and 24 h.

C[C@@H]1O[C@@H](OC[C@H]2O[C@@H](Oc3c(-c4ccc(O)c(O)c4)oc4cc(O)cc(O)c4c3=O)[C@H](O)[C@@H](O)[C@@H]2O)[C@H](O)[C@H](O)[C@H]1O [rutin]
amount of intact flavonoid remaining, of the initial amount in the solution (5 h at 50° C.): 100% | amount of intact flavonoid remaining, of the initial amount in the solution (24 h at 50° C.): 97.2% | flavonoid degraded (after 24 h at 50° C., with L-arginine and sodium ascorbate): 2.8%
